“And” between values parts separate entries of the source, which are not always exact repeats. Equal entries are not always repeated. Toxic doses and inconclusive results are not listed. The calls were made as follows: active = survival T/C of 150% or more; inactive = T/C below 125% in these data.
System: CD2F1 mice, L1210 leukemia ip, survival T/C
Assay: NCI In Vivo Anticancer Drug Screen. Data for tumor model L1210 Leukemia (intraperitoneal) in CD2F1 (CDF1) mice
Settings: endpoint: mean survival time, higher = longer survival
In short: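 Antitumor effect is scored in animals hosting a serially transplanted tumor. Values compare compound-dosed animals against vehicle-only controls as a simple quotient.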

[1] = dose: 100.0 mg/kg/injection, schedule: Q04DX003 (ip), vehicle: saline with Tween-80
[2] = dose: 200.0 mg/kg/injection, schedule: Q04DX003 (ip), vehicle: saline with Tween-80
[3] = dose: 400.0 mg/kg/injection, schedule: Q04DX003 (ip), vehicle: saline with Tween-80
[4] = dose: 100.0 mg/kg/injection, schedule: Q01DX009 (ip), vehicle: saline with Tween-80
[5] = dose: 200.0 mg/kg/injection, schedule: Q01DX009 (ip), vehicle: saline with Tween-80
[6] = dose: 400.0 mg/kg/injection, schedule: Q01DX009 (ip), vehicle: saline with Tween-80
[7] = dose: 100.0 mg/kg/injection, schedule: Q01DX001 (ip), vehicle: saline
[8] = dose: 200.0 mg/kg/injection, schedule: Q01DX001 (ip), vehicle: saline
[9] = dose: 50.0 mg/kg/injection, schedule: Q01DX009 (ip), vehicle: saline with Tween-80

Measured: T/C

CC1NC1(c1ccccc1)n1ccnc1 (stereo not drawn)
inactive: dose: 12.5 mg/kg/injection, schedule: Q01DX009 (ip), vehicle: water 95 % of control | dose: 25.0 mg/kg/injection, schedule: Q01DX009 (ip), vehicle: water 99 % of control | dose: 50.0 mg/kg/injection, schedule: Q01DX009 (ip), vehicle: water 99 % of control | dose: 100.0 mg/kg/injection, schedule: Q01DX009 (ip), vehicle: water 103 % of control | dose: 200.0 mg/kg/injection, schedule: Q01DX009 (ip), vehicle: water 90 % of control

C1=C(c2ccccc2)NCC1c1ccccc1 (stereo not drawn)
inactive: dose: 100.0 mg/kg/injection, schedule: Q01DX001 (ip), vehicle: saline with Tween-80 94 % of control | dose: 200.0 mg/kg/injection, schedule: Q01DX001 (ip), vehicle: saline with Tween-80 86 % of control | dose: 400.0 mg/kg/injection, schedule: Q01DX001 (ip), vehicle: saline with Tween-80 89 % of control

O=C(NC/C(Br)=C/Br)Nc1cccc2c1CCCC2
inactive: [1] 96 % of control | [2] 101 % of control | [3] 90 % of control

CN(C)c1ccc(C(=O)CCN2CC=C(c3ccccc3)CC2)cc1
inactive: dose: 100.0 mg/kg/injection, schedule: Q04DX002 (ip), vehicle: saline with Tween-80 102 % of control

C=CCSc1ccccn1
inactive: dose: 50.0 mg/kg/injection, schedule: Q01DX001 (ip), vehicle: carboxymethylcellulose (CMC) 94 % of control | dose: 100.0 mg/kg/injection, schedule: Q01DX001 (ip), vehicle: carboxymethylcellulose (CMC) 86 % of control | dose: 200.0 mg/kg/injection, schedule: Q01DX001 (ip), vehicle: carboxymethylcellulose (CMC) 88 % of control | dose: 400.0 mg/kg/injection, schedule: Q01DX001 (ip), vehicle: carboxymethylcellulose (CMC) 94 % of control

Cc1o[nH]c(=O)c1C
inactive: [4] 96 % of control | [5] 98 % of control | [6] 98 % of control

O=S1(=O)CC=CC1
inactive: [4] 98 % of control | dose: 100.0 mg/kg/injection, schedule: Q04DX003 (ip), vehicle: saline sonified 103 % of control | [5] 101 % of control | dose: 200.0 mg/kg/injection, schedule: Q04DX003 (ip), vehicle: saline sonified 106 % of control | [6] 101 % of control | dose: 400.0 mg/kg/injection, schedule: Q04DX003 (ip), vehicle: saline sonified 95 % of control

CC(=O)Nc1nc(N)nc2nonc12
inactive: dose: 12.5 mg/kg/injection, schedule: Q01DX005 (ip), vehicle: saline with Tween-80 100 % of control | dose: 25.0 mg/kg/injection, schedule: Q01DX005 (ip), vehicle: saline with Tween-80 98 % of control | dose: 50.0 mg/kg/injection, schedule: Q01DX005 (ip), vehicle: saline with Tween-80 100 % of control | dose: 100.0 mg/kg/injection, schedule: Q01DX005 (ip), vehicle: saline with Tween-80 96 % of control | dose: 200.0 mg/kg/injection, schedule: Q01DX005 (ip), vehicle: saline with Tween-80 93 % of control

CC(C)[NH-].CC(C)[NH-].O.O.[Cl][Pt+2][Cl]
inactive: dose: 1.5 mg/kg/injection, schedule: Q01DX009 (ip), vehicle: saline 118 % of control | dose: 1.57 mg/kg/injection, schedule: Q01DX009 (ip), vehicle: saline 115 % of control | [7] 112 % of control | [8] 90 % of control

Cc1cc(OCCOC(=O)Nc2c(Cl)cccc2Cl)cc(C)c1Cl
inactive: [9] 92 % of control | [4] 100 % of control | [5] 107 % of control

O=C(N/N=C/c1ccccc1)c1ccccc1O
inactive: dose: 100.0 mg/kg/injection, schedule: Q01DX009 (ip), vehicle: Klucel (hydroxypropylcellulose) (HPC) 96 % of control | dose: 100.0 mg/kg/injection, schedule: Q04DX003 (ip), vehicle: Klucel (hydroxypropylcellulose) (HPC) 100 % of control | dose: 200.0 mg/kg/injection, schedule: Q01DX009 (ip), vehicle: Klucel (hydroxypropylcellulose) (HPC) 97 % of control | dose: 200.0 mg/kg/injection, schedule: Q04DX003 (ip), vehicle: Klucel (hydroxypropylcellulose) (HPC) 94 % of control | dose: 400.0 mg/kg/injection, schedule: Q01DX009 (ip), vehicle: Klucel (hydroxypropylcellulose) (HPC) 94 % of control | dose: 400.0 mg/kg/injection, schedule: Q04DX003 (ip), vehicle: Klucel (hydroxypropylcellulose) (HPC) 94 % of control

CCCCOC(N)=O
inactive: [4] 100 % of control | [5] 105 % of control | [6] 97 % of control

Cc1c(N)nc(C(CC(N)=O)NCC(N)C(N)=O)nc1C(=O)NC(C(=O)NC(C)C(O)C(C)C(=O)NC(C(=O)NCCc1nc(-c2nc(C(=O)NCCCNC(C)c3ccccc3)cs2)cs1)C(C)O)C(OC1OC(CO)C(O)C(O)C1OC1OC(CO)C(O)C(OC(N)=O)C1O)c1cnc[nH]1 (stereo not drawn)
inactive: dose: 0.25 mg/kg/injection, schedule: Q01DX009 (ip), vehicle: water 100 % of control | dose: 0.5 mg/kg/injection, schedule: Q01DX009 (ip), vehicle: water 103 % of control and 105 % of control | dose: 1.0 mg/kg/injection, schedule: Q01DX009 (ip), vehicle: saline 103 % of control | dose: 1.0 mg/kg/injection, schedule: Q01DX009 (ip), vehicle: water 123 % of control and 98 % of control | dose: 2.0 mg/kg/injection, schedule: Q01DX009 (ip), vehicle: saline 106 % of control | dose: 2.0 mg/kg/injection, schedule: Q01DX009 (ip), vehicle: water 104 % of control and 109 % of control | dose: 4.0 mg/kg/injection, schedule: Q01DX009 (ip), vehicle: saline 104 % of control | dose: 4.0 mg/kg/injection, schedule: Q01DX009 (ip), vehicle: water 113 % of control and 102 % of control | dose: 8.0 mg/kg/injection, schedule: Q01DX009 (ip), vehicle: saline 106 % of control | dose: 8.0 mg/kg/injection, schedule: Q01DX009 (ip), vehicle: water 109 % of control | dose: 16.0 mg/kg/injection, schedule: Q01DX009 (ip), vehicle: saline 101 % of control | dose: 16.0 mg/kg/injection, schedule: Q01DX009 (ip), vehicle: water 113 % of control | dose: 32.0 mg/kg/injection, schedule: Q01DX009 (ip), vehicle: saline 89 % of control

CSc1nc(C)cc(Cl)n1
inactive: [9] 94 % of control | [4] 92 % of control | [1] 103 % of control | [5] 95 % of control | [2] 97 % of control

NC(=O)NC1CC1(c1ccccc1)c1ccccc1 (stereo not drawn)
inactive: dose: 177.0 mg/kg/injection, schedule: Q01DX001 (ip), vehicle: other 94 % of control | dose: 267.0 mg/kg/injection, schedule: Q01DX001 (ip), vehicle: other 96 % of control | dose: 400.0 mg/kg/injection, schedule: Q01DX001 (ip), vehicle: other 100 % of control

Oc1ccc2ccccc2c1Cl
inactive: [1] 104 % of control | [2] 112 % of control | [3] 108 % of control

O=C(O)c1cc(-c2ccc(Cl)cc2)nc2c1ccc1ccccc12
inactive: [7] 102 % of control | [8] 97 % of control

COc1ccc(C(=O)NNC(=O)c2ccc(OC)cc2)cc1
inactive: dose: 100.0 mg/kg/injection, schedule: Q01DX001 (ip), vehicle: Klucel (hydroxypropylcellulose) (HPC) 108 % of control | dose: 200.0 mg/kg/injection, schedule: Q01DX001 (ip), vehicle: Klucel (hydroxypropylcellulose) (HPC) 104 % of control | dose: 400.0 mg/kg/injection, schedule: Q01DX001 (ip), vehicle: Klucel (hydroxypropylcellulose) (HPC) 100 % of control

Cc1nc2ccccc2cc1C[N+]12CN3CN(CN(C3)C1)C2
inactive: dose: 25.0 mg/kg/injection, schedule: Q01DX009 (ip), vehicle: saline with Tween-80 106 % of control | dose: 25.0 mg/kg/injection, schedule: Q04DX003 (ip), vehicle: saline with Tween-80 101 % of control | [9] 113 % of control | dose: 50.0 mg/kg/injection, schedule: Q04DX003 (ip), vehicle: saline with Tween-80 103 % of control | [7] 109 % of control

C=C1C(=O)O[C@@H]2[C@H](O)[C@@H](C)[C@@H]3C=CC(=O)[C@@]3(C)[C@H](OC(=O)C=C(C)C)[C@H]12
inactive: dose: 1.25 mg/kg/injection, schedule: Q01DX009 (ip), vehicle: saline with Tween-80 100 % of control | dose: 2.5 mg/kg/injection, schedule: Q01DX009 (ip), vehicle: saline with Tween-80 102 % of control | dose: 5.0 mg/kg/injection, schedule: Q01DX009 (ip), vehicle: saline with Tween-80 108 % of control | dose: 10.0 mg/kg/injection, schedule: Q01DX009 (ip), vehicle: saline with Tween-80 106 % of control | dose: 20.0 mg/kg/injection, schedule: Q01DX009 (ip), vehicle: saline with Tween-80 89 % of control

CCCC(C)(C)OC(=O)c1ccc([N+](=O)[O-])cc1
inactive: [7] 96 % of control | [8] 98 % of control | dose: 400.0 mg/kg/injection, schedule: Q01DX001 (ip), vehicle: saline 100 % of control
